According to article PMC5712356, “A New Ala-122-Asn Amino Acid Change Confers Decreased Fitness to ALS-Resistant Echinochloa crus-galli” (Frontiers in Plant Science, 2017):

System: T1, ALS (acetolactate synthase; acetohydroxyacid synthase, AHAS; EC 2.2.1.6)
T1 construct: not purified; polyploid species, ALS gene copies not separated
Test: acetoin (Westerfeld) colorimetric ALS assay, […] nm, log-logistic fit
Assay type: biochemical, Echinochloa crus-galli
Conditions: sub-population S (no known ALS mutation); Na-pyruvate, MgCl2, TPP, FAD, pH 7.0, 37 °C, 90 min; partially purified leaf extract; read-out: I50

SMILES | IC50
COCc1cnc(C2=NC(C)(C(C)C)C(=O)N2)c(C(=O)O)c1 (centres unmarked) [Imazamox] | 1740 nM
COc1cc(OC)nc(NC(=O)NS(=O)(=O)c2ncccc2C(=O)N(C)C)n1 [Nicosulfuron] | 19 nM
